This test concerns the target mouse TRPM3α2 (mTRPM3) ion channel (Mus musculus (Mouse), UniProt J9SQF3). The experiment in a line: TRPM3 ion channel driven Ca2+ uptake, Fluo-4 AM assay, mTRPM3alpha2 overexpressing flip-in HEK293 cells stimulated with pregnenolone sulfate. The format is cell-based. In a few lines: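 Flip-in HEK293 cells loaded with Fluo-4 AM were added to plates holding compound plus 50 μM pregnenolone sulfate in Ca2+-containing Krebs buffer. Fluorescence (ex 485/em 535 nm) read directly after cell addition; % inhibition relative to PS-stimulated vehicle and positive-control inhibitor.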

The mark [1] stands for this setting: PS (50 μM) stimulated, cpds. 500-599.
[2] abbreviates: PS (50 μM) stimulated, cpds. 667-751.
[3] abbreviates: PS (50 μM) stimulated, cpds. 400-499.
[4] abbreviates: PS (50 μM) stimulated, cpds. 608-666.
Setting [5] is: PS (50 μM) stimulated, cpd 001-199.

Sequence of mouse TRPM3α2 (mTRPM3) ion channel (J9SQF3 other isoform, or with tags, fused parts or gaps): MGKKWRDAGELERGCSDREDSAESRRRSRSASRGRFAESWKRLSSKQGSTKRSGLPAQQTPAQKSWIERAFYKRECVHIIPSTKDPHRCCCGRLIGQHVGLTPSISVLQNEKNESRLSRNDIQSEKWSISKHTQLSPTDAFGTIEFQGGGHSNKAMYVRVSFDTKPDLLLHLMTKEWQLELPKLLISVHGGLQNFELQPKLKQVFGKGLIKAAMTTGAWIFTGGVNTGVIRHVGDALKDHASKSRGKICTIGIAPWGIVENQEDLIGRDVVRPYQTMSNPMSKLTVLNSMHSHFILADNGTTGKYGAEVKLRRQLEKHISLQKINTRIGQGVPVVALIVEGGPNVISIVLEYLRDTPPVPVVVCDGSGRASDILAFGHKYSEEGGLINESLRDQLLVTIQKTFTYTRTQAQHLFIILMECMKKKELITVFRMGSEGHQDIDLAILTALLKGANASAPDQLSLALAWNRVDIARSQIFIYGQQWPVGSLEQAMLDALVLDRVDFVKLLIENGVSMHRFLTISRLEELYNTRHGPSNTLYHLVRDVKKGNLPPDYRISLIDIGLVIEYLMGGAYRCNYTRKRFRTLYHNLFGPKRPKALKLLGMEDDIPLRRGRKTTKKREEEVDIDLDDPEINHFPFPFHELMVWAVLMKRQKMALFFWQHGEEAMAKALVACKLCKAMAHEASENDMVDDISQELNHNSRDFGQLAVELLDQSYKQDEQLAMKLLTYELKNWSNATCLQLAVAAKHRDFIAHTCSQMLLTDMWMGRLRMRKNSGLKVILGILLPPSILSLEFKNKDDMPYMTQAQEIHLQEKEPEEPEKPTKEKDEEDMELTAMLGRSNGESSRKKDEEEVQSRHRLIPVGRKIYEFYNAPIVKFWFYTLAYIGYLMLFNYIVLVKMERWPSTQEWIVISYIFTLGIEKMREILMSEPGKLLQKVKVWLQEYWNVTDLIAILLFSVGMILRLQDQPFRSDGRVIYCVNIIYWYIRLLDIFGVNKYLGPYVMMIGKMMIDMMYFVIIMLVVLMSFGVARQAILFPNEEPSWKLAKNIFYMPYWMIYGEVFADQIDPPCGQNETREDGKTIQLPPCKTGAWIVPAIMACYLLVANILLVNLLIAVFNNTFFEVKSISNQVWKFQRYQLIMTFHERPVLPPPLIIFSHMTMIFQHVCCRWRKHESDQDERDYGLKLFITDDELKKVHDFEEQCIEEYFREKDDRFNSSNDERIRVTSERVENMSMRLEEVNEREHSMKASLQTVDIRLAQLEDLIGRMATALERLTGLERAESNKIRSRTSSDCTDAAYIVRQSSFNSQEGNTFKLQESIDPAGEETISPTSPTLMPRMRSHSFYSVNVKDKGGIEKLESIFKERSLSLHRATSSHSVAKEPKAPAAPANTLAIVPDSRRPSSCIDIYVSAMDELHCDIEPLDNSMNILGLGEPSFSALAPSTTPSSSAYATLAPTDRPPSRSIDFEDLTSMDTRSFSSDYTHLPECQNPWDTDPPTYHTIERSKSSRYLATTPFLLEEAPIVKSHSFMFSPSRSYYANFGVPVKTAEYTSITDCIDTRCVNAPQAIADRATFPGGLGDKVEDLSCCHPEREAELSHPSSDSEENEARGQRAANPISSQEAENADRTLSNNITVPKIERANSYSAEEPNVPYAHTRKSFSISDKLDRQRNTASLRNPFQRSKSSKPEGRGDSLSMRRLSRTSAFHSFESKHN

The IC50 is the concentration that gives 50% inhibition. High values mean lower potency, low ones higher potency. As to `CC(=O)NCCNC(=O)c1c(C)oc2ccc(OCc3scnc3C)cc12` [compound 501, N-(2-acetamidoethyl)-2-methyl-5-((4-methylthiazol-5-yl)methoxy)benzofuran-3-carboxamide], the IC50 under setting [1] was < 1 µM. For `Cc1oc2ccc(OCc3ncccc3C(F)F)cc2c1C(=O)NC1CCNCC1(F)F` (centres unmarked) [compound 717, 5-((3-(Difluoromethyl)pyridin-2-yl)methoxy)-N-(3,3-difluoropiperidin-4-yl)-2-methylbenzofuran-3-carboxamide], the IC50 under setting [2] is < 1 µM.

On to `Cc1oc2ccc(OCc3cccnc3N)cc2c1C(=O)N[C@@H](CO)C(N)=O` [compound 300, (S)-N-(1-amino-3-hydroxy-1-oxopropan-2-yl)-5-((2-aminopyridin-3-yl)methoxy)-2-methylbenzofuran-3-carboxamide], for which the IC50 (PS 50 μM, cpds 300-399) is < 1 µM. Consider `Cc1oc2ccc(OCc3ccnn3C)cc2c1C(=O)NC(C)(CO)CO` [compound 423, N-(1,3-dihydroxy-2-methylpropan-2-yl)-2-methyl-5-((1-methyl-1H-pyrazol-5-yl)methoxy)benzofuran-3-carboxamide], for which the IC50 under setting [3] is < 1 µM. On to `Cc1ncsc1COc1ccc2oc(C)c(C(=O)NC3CCCCNC3=O)c2c1` (single isomer, unassigned) [cpd 661-En 1], for which the IC50 under setting [4] was < 1 µM.

As for `CCOc1ncccc1COc1ccc2oc(C)c(C(=O)NC3(CO)CCOCC3)c2c1` [compound 206, 5-((2-ethoxypyridin-3-yl)methoxy)-N-(4-(hydroxymethyl)tetrahydro-2H-pyran-4-yl)-2-methyl-benzofuran-3-carboxamide], under “PS 50 μM, cpds 200-299”, the IC50 is < 1 µM. On to `Cc1oc2ccc(OCc3cccnc3OC(F)F)cc2c1C(=O)NC1CCNCC1(F)F` (single isomer, unassigned) [cpd 338-En 2], for which, for the setting “PS 50 μM, cpds 300-399”, the IC50 was < 1 µM. On to `Cc1ncsc1COc1cc2c(C(=O)NC3(CO)CCOCC3)c(C)oc2cc1C#N` [compound 194, 6-cyano-N-(4-(hydroxymethyl)tetrahydro-2H-pyran-4-yl)-2-methyl-5-((4-methylthiazol-5-yl) -methoxy)benzofuran-3-carboxamide], for which the IC50 under setting [5] was > 20 µM. With `Cc1nccc(COc2ccc3oc(C)c(C(=O)NC4CCNCC4(F)F)c3c2)n1` (single isomer, unassigned) [cpd 548-En 1], under setting [1], the IC50 is 1 to 20 µM. In the case of `COc1ncccc1COc1ccc2oc(C)c(C(=O)NC3(C(N)=O)CCC3)c2c1` [compound 474, N-(1-carbamoylcyclobutyl)-5-((2-methoxypyridin-3-yl)methoxy)-2-methylbenzofuran-3-carboxamide], the IC50 under setting [3] is < 1 µM. Turning to `COc1ncccc1COc1ccc2oc(C)c(C(=O)NC3CCNCC3(F)F)c2c1` (single isomer, unassigned) [cpd 565-En 2], the IC50 under setting [1] was < 1 µM. Same read-out and setting: under `Cc1oc2ccc(OCc3ccc4nccn4c3)cc2c1C(=O)NC1CCNCC1(F)F` (single isomer, unassigned) [cpd 571-En 1] stands 1 to 20 µM. As for `Cc1ncsc1COc1ccc2oc(C)c(C(=O)N(CCO)C3CCC3)c2c1` [compound 660, N-cyclobutyl-N-(2-hydroxyethyl)-2-methyl-5-((4-methylthiazol-5-yl)methoxy)benzofuran-3-carboxamide], the IC50 under setting [4] is > 20 µM. The molecule `Cc1ncc(COc2ccc3oc(C)c(C(=O)NC4CCS(=N)(=O)C4)c3c2)s1` (single isomer, unassigned) [cpd 727-En 1] registered an IC50 under setting [2] of 1 to 20 µM. In the case of `CNC(=O)[C@H](CO)NC(=O)c1c(C)oc2ccc(OCc3cnc(C)s3)cc12` [compound 305, (S)-N-(3-hydroxy-1-(methylamino)-1-oxopropan-2-yl)-2-methyl-5-((2-methylthiazol-5-yl)methoxy)benzofuran-3-carboxamide], the IC50 (PS 50 μM, cpds 300-399) is < 1 µM. Turning to `Cc1oc2ccc(OCc3nccn3C)cc2c1C(=O)NC1CNCC1(F)F` (single isomer, unassigned) [cpd 638-En 1], the IC50 under setting [4] is < 1 µM. Consider `Cc1oc2ccc(OCc3cccnc3C(F)(F)F)cc2c1C(=O)NC1CCN(CCO)C1=O` (single isomer, unassigned) [120-En 1, N-(1-(2-hydroxyethyl)-2-oxopyrrolidin-3-yl)-2-methyl-5-((2 (trifluoromethyl)pyridin-3-yl)methoxy)benzofuran-3-carboxamide], for which the IC50 under setting [5] is < 1 µM. With `Cc1oc2c(C#N)cc(OCc3cccnc3C(F)(F)F)cc2c1C(=O)NC1CCNCC1(F)F` (single isomer, unassigned) [196-En 1, 7-cyano-N-(3,3-difluoropiperidin-4-yl)-2-methyl-5-((2-(trifluoro-methyl)pyridin-3-yl)methoxy)benzofuran-3-carboxamide], the IC50 under setting [5] was > 20 µM.

As for `Cc1ncsc1COc1ccc2oc(C)c(C(=O)NC3(CO)CCOC3)c2c1` (single isomer, unassigned) [cpd 132-En 1], the IC50 under setting [5] was < 1 µM.

In the case of `Cc1oc2ccc(OCc3ccc4nccn4c3)cc2c1C(=O)NC1CCNCC1(F)F` (centres unmarked) [compound 070, N-(3,3-difluoropiperidin-4-yl)-5-(imidazo[1,2-a]pyridin-6-ylmethoxy)-2-methylbenzofuran-3-carboxamide], the IC50 under setting [5] was < 1 µM. For the molecule `Cc1ncsc1COc1ccc2oc(C)c(C(=O)NC3(C(N)=O)CC(F)(F)C3)c2c1` [compound 470, N-(1-carbamoyl-3,3-difluorocyclobutyl)-2-methyl-5-((4-methylthiazol-5-yl)methoxy)benzofuran-3-carboxamide], under setting [3], the IC50 was < 1 µM.

Turning to `Cc1oc2ccc(OCc3cn(C)nc3C(F)(F)F)cc2c1C(=O)N[C@@H](CO)C(N)=O` [compound 692, (S)-N-(1-Amino-3-hydroxy-1-oxopropan-2-yl)-2-methyl-5-((1-methyl-3-(trifluoromethyl)-1H -pyrazol-4-yl)methoxy)benzofuran-3-carboxamide], the IC50 under setting [2] was < 1 µM.

Take `Cc1oc2ccc(OCc3cccnc3OC3CC3)cc2c1C(=O)N[C@@H](CO)C(N)=O` [compound 710, (S)-N-(1-amino-3-hydroxy-1-oxopropan-2-yl)-5-((2-cyclopropoxypyridin-3-yl)methoxy)-2-methylbenzofuran-3-carboxamide]: the IC50 under setting [2] is < 1 µM. Turning to `Cc1oc2ccc(OCc3ccsc3)cc2c1C(=O)NC1CCNC1=O` (centres unmarked) [compound 035, 2-methyl-N-(2-oxopyrrolidin-3-yl) -5-(thiophen-3-ylmethoxy)benzofuran-3-carboxamide], under setting [5], the IC50 is < 1 µM. Consider `Cc1ncsc1COc1ccc2oc(C)c(C(=O)NC(C)CO)c2c1` (single isomer, unassigned) [cpd 491-En 1], for which the IC50 under setting [3] is < 1 µM.

Consider `Cc1oc2ccc(OCc3cccnc3O)cc2c1C(=O)NC(C)(C)C(N)=O` [compound 443, N-(1-amino-2-methyl-1-oxopropan-2-yl)-5-((2-hydroxypyridin-3-yl)methoxy)-2-methylbenzofuran-3-carboxamide], for which, under setting [3], the IC50 is < 1 µM. On to `Cc1noc(C)c1COc1ccc2oc(C)c(C(=O)O)c2c1` [compound 016, 5-((3,5-dimethylisoxazol-4-yl)methoxy)-2-methylbenzofuran-3-carboxylic acid], for which the IC50 under setting [5] was > 20 µM. With `Cc1ncsc1COc1ccc2oc(C)c(C(=O)NC(C)(C)CC(N)=O)c2c1` [compound 649, N-(4-amino-2-methyl-4-oxobutan-2-yl)-2-methyl-5-((4-methylthiazol-5-yl)methoxy)benzofuran-3-carboxamide], the half-inhibitory concentration (IC50) under setting [4] was < 1 µM. For the molecule `Cc1oc2ccc(OCc3cccnc3C(F)(F)F)cc2c1C(=O)NC1(CO)CCOC1` (single isomer, unassigned) [cpd 135-En 1], under setting [5], the IC50 is < 1 µM.

The values above are taken from patent US12209081B2 (Katholieke Universiteit Leuven, priority 2020, dated 2025).
